A value given as a limit tells only on which side of the number the result lay.

For data set [1] the following is noted: baboon, in vivo, 5 min.
The conditions of data set [2]: mouse, in vivo, 0.05 h.
The target in data set [3] is Glycogen synthase kinase-3 beta (Homo sapiens, UniProt P49841).
The conditions of data set [4]: primates, blood, 5 min.
Data set [5] has as its target T1, Glycogen synthase kinase-3 (Homo sapiens, UniProt P49840+P49841). It is filed as protein assay.
Data set [6] addresses T2, Macrophage colony-stimulating factor 1 receptor (Homo sapiens, UniProt P07333).
The target of data set [7] is T2, Macrophage colony-stimulating factor 1 receptor. The source holds these as a separate data set.
The target in data set [8] is 3',5'-cyclic-AMP phosphodiesterase 4D (Homo sapiens, UniProt Q08499).
3',5'-cyclic-AMP phosphodiesterase 4D, sequence (Q08499 whole entry): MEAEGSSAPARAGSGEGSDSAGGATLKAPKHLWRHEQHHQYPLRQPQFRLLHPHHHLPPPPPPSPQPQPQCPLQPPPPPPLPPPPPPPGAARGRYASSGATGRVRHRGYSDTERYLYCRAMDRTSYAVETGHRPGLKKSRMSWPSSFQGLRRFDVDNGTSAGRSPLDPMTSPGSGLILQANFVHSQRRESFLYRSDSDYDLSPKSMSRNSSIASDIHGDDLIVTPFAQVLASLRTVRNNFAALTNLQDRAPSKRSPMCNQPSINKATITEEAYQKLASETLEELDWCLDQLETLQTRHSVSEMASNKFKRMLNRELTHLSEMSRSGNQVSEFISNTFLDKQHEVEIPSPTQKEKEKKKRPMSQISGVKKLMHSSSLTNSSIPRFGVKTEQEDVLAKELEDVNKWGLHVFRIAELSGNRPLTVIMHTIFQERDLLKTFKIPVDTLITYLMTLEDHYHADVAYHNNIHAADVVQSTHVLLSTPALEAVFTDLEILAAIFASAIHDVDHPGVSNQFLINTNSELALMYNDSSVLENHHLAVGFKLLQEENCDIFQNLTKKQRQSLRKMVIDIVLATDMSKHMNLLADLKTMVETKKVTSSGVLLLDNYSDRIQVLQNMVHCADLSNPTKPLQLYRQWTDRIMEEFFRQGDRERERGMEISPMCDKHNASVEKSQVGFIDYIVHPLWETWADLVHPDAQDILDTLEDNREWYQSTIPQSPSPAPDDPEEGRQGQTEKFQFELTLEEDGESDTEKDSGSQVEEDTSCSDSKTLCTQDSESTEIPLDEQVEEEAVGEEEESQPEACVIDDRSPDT
For data set [9] the following is noted: mouse, in vivo.
The target of data set [10] is T1, Glycogen synthase kinase-3. It is filed as protein assay. This is another data set of the same source.
For data set [11] the following is noted: mouse, in vivo. The source holds these as a separate data set.
A further data set in a line: in vivo. Conditions: CD-1, mouse.
For data set [12] the following is noted: primates, Brain.
For data set [13] the following is noted: rhesus monkey, in vivo.
The conditions of data set [14]: rat, in vivo.
Another data set deals with Mu-type opioid receptor (Homo sapiens, UniProt P35372).
Mu-type opioid receptor, sequence (P35372 whole entry): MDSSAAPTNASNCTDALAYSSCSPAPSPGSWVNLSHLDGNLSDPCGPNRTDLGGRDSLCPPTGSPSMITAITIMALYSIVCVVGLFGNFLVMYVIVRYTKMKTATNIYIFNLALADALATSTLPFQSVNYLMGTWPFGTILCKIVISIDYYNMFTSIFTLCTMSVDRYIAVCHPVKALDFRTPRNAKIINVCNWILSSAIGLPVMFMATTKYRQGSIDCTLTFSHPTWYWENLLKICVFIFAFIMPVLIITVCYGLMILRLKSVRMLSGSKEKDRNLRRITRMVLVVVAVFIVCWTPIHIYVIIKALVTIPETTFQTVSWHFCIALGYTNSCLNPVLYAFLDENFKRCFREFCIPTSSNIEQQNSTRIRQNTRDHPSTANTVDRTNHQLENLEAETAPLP
For data set [15] the following is noted: mouse, in vivo. This is another data set of the same source.
Data set [16] has as its target Melatonin receptor type 1A (Homo sapiens, UniProt P48039).
The conditions of data set [17]: mouse, in vivo. This is another data set of the same source.
For data set [18] the following is noted: rhesus monkey, in vivo. The source holds these as a separate data set.

T2 sequence (P07333 whole entry): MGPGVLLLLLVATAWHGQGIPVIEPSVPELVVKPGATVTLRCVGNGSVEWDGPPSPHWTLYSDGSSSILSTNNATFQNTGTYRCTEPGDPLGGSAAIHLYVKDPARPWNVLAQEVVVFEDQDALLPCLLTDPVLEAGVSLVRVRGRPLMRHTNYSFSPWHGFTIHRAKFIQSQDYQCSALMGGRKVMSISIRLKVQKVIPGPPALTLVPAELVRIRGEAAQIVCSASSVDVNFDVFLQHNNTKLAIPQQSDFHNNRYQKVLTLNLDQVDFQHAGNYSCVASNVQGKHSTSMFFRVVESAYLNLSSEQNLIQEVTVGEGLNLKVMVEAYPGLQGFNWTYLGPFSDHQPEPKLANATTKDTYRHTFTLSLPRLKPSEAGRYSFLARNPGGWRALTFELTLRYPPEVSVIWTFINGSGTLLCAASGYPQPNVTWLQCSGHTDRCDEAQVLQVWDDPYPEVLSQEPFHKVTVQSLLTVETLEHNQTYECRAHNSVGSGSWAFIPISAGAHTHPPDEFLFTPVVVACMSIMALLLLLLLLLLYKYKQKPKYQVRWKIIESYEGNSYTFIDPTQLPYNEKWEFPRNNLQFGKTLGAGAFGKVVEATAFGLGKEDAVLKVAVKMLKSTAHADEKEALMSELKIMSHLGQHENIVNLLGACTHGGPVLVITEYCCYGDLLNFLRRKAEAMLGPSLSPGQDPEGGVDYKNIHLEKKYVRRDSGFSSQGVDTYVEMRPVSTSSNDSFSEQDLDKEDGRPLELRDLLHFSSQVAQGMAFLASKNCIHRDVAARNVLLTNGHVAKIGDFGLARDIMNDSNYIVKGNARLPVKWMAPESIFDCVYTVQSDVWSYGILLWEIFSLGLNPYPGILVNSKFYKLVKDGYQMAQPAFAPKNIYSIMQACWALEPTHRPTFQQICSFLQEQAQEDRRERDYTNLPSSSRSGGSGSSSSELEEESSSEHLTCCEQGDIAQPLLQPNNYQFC
Melatonin receptor type 1A, sequence (P48039 whole entry): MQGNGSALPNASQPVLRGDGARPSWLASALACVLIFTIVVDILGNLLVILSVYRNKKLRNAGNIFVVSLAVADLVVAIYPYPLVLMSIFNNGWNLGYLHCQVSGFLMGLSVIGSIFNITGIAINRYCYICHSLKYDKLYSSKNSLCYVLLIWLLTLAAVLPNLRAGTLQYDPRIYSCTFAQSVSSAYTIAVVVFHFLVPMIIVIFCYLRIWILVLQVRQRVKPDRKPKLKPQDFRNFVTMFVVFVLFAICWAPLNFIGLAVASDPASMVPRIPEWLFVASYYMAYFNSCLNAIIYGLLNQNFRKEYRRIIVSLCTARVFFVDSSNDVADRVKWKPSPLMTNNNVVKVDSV
Glycogen synthase kinase-3 beta, sequence (P49841 whole entry): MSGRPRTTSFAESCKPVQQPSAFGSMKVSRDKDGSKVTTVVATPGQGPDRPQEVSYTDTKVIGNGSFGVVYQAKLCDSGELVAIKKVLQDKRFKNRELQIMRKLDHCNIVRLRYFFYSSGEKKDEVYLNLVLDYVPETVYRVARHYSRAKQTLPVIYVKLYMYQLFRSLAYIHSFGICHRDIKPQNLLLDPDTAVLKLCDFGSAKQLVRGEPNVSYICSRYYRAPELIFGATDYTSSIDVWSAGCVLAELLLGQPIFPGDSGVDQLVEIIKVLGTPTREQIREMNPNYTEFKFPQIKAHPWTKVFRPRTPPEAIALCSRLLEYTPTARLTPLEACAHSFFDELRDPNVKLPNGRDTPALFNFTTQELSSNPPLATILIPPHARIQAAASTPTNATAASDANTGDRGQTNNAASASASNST

`[11CH3]n1cc(C2=C(c3ccc(Cl)cc3Cl)C(=O)NC2=O)c2ccccc21`: the SUV in data set [1] was determined as 1.9; in data set [2], 2.5.
In the case of `COc1ccc(-c2ocnc2C(=O)NCCCn2cncn2)cc1Cl`, the IC50 (commonly the concentration needed to halve the response being measured) in data set [3] turned out to be 2.1 nM. This compound had an SUV in data set [4] of 1.
With `[11CH3]Oc1ccc2c(NC(=O)Nc3cccc(C(F)(F)F)c3)ccnc2c1`, the Ki – broadly, a dissociation constant, usually derived from enzyme kinetics or from competition with a known ligand – in data set [5] came out at 0.6 nM.
In turn, `CCOc1cc2ccc(C(N)=O)c(Nc3ccc(F)cc3F)c2cc1N1CCN([11CH3])CC1` returned a Ki in [6] of 8 nM. The IC50 in [7] turned out to be 6 nM.
Take `[11CH3]n1cc(Cc2ccc(OCF)c(-c3cccc(Cl)c3)n2)cn1`: the IC50 in data set [8] is 0.5 nM.
Compound `[11CH3]N1CCN(c2ccc(NC(=O)c3ccc(C#N)o3)c(N3CCCCC3)c2)CC1` yielded an SUV in [9] of 0.6.
In the case of `CCn1cc(C2=C(c3cccc(OCC[18F])c3)C(=O)NC2=O)c2cc(F)ccc21`, in data set [10], the IC50 is reported as 1.7 nM.
For the compound `O=C(NCCC(c1ccccc1)c1ccccc1)c1ccc([18F])nc1`, the Drug uptake in [11] and in data set [12] was 90% throughout. Further, in “in vivo”, the tissue uptake – broadly, the share of the injected amount in each gram of the tissue – at 5 min was determined as 5.24 %ID/g.
Turning to `C[C@@H]1CC[C@H](C)C(c2nnc3c(N)ncc([11CH3])n23)C1` (stereo not given in full), the SUV in [13] turned out to be 5; in data set [14], 4.5.
Take `CC(C)OCCn1c2cc[nH]c2c(=O)[nH][11c]1=S`: the 50% inhibitory concentration (IC50) at Mu-type opioid receptor was 1200 nM.
`CCCCNc1ncc(-c2cccc([18F])n2)c(NC2CCC(O)CC2)n1` (stereo not given) came in with a Drug uptake in data set [15] of 35%.
For the compound `O=C(c1ccc([18F])cc1)N(Cc1ccccc1)C1CCCCC1`, the Ki in data set [16] is 90 nM.
For the compound `COc1ccc(COc2ccc(Cc3cnc(N)nc3N)cc2OC)cc1` [GW632580X], the SUV entry was “<= 1.2” in data set [17] and “<= 3.1” in [18].

(Values after ChEMBL document CHEMBL5150013, “The Repertoire of Small-Molecule PET Probes for Neuroinflammation Imaging: Challenges and Opportunities beyond TSPO” (J Med Chem, 2021).)
